Laboratory results published in US11299496B2, “Ligands for alpha-7 nicotinic acetylcholine receptors and methods of treating neurological and inflammatory conditions” (Northeastern University, priority 2014, dated 2022).

Tested on: CFA-injected mice
Assay: Complete Freund's Adjuvant test (mechanical allodynia, thermal hyperalgesia)
Assay type: in vivo, mouse
Description: Mice were injected with 20 μl of CFA (0.5 mg/ml of heat killed Mycobacterium tuberculosis, Sigma) in the intraplantar region of the right hindpaw. Paw diameter and thermal hyperalgesia (see paw withdrawal test) were measured 3 days after CFA injection. In separate groups of mice that received CFA, mechanical allodynia thresholds were determined according to previously published method (Ondachi et. al. J Med Chem. 2014 Feb. 13; 57(3):836-48. doi: 10.1021/jm401602p). Mice were placed in a plexiglas cage with mesh metal flooring and allowed to acclimate for 30 min before testing. A series of calibrated von Frey filaments (Stoelting, Wood Dale, Ill.) with logarithmically incremental stiffness ranging from 2.83 to 5.88 expressed as log 10 of [10 £ force in (mg)] were applied to the paw with a modified up-down method. In the absence of a paw withdrawal response to the initially selected filament, a thicker filament corresponding to a stronger stimulus was presented. In the event of paw withdrawal, the next weaker stimulus was chosen. Each hair was presented perpendicularly against the paw, with sufficient force to cause slight bending, and held 2-3 s. The stimulation of the same intensity was applied 5 times to the hindpaw at intervals of a few seconds. Three or more responses out of five stimulations were coded as a positive response. Once a positive response was detected, sequentially lower weight filaments were used to assess the sensory threshold for each paw. The allodynia scores were recorded in a blinded fashion.
A similar sequence of drug treatment described for the formalin testing was used to test the antinociceptive effects of alpha-7 nAChRs ago-PAMs in the CFA model of inflammatory pain. […] Paw diameter and mechanical allodynia will be measured 3 days after CFA injection. We assessed the dose-response relationship of […]7 nAChRs ago-PAMs (4 doses) in reversing CFA-induced mechanical allodynia and paw edema.

## NS(=O)(=O)c1ccc2c(c1)[C@H]1C=CC[C@H]1[C@@H](c1ccc(Br)cc1)N2 [Compound 1, (3aR,4S,9bS)-4-(4-bromophenyl)-3a,4,5,9b-tetrahydro-3H-cyclopenta[c]quinoline-8-sulfonamide]
Data not shown
  antiallodynic and antihyperalgesic effects after MLA: MLA blocked the effects
i.p., dose dependent
  duration of antiallodynic effect: 180 min
mouse, in vivo
  duration of antihyperalgesic effect: 60 min
